Legend:
[1] = test system: diabetic peripheral neuropathy patients; assay: Case report: diabetic neuropathy drugs combined with MR treatment; assay type: in vivo, human; conditions: diabetic neuropathy in both feet, taking the drugs; resonated four times for one hour each
Description: In one subject, a person suffered with diabetic neuropathy in both feet. […] The subject was taking the drugs Actos, Metaformin, and Lisinopril. The subject was resonated four times for one hour each time. […] As of fifteen months after the last treatment session, the sensation remained. Also, the subjects from Example 5 reported improvements with respect to symptoms relating to diabetic neuropathy (e.g., lack of sensation and pain).
In providing MR treatment to a subject with diabetic neuropathy, an amplitude of about 0.455 μG to about 0.53 μG, with a frequency of about 12.7 Hz to about 14.84 Hz may be used.

fibromyalgia patients = assay: Case reports: fibromyalgia, drugs combined with MR treatment; assay type: in vivo, human; conditions: same subject; thirteen MR treatments within a two-month period
Procedure: In one example, a person experienced fibromyalgia for a number of years. The subject also experienced insomnia, restless legs, and chronic fatigue. The subject took the drug Naproxen (Aleve). The subject received seven consecutive days of 1 to 1.5 hour treatments.
Their primary complaint was back pain. […] The subject received thirteen treatments within a two-month period. […] Approximately two months after completing their first series of treatment, they began a second regimen of ten treatments within a two-month period.
In a further example, a person at least fifty years old suffered from fibromyalgia for a number of years. […] The subject received daily (when possible) treatments for approximately one year.

cancer patients = conditions: in vivo
Procedure: In one example, carboplaton and taxol are cancer drugs for treating cancer, including ovarian cancer.
For this protocol, the MR device settings may be, for example, amplitude=about 0.017 μG to about 0.3 μG, frequency=about 0.3 Hz to about 9.6 Hz, waveform=sine or square, and MR treatment duration=about 80 minutes.

[2] = test system: patients with high cholesterol; assay: Case report: cholesterol drug combined with MR treatment; assay type: in vivo, human; conditions: person taking Lipitor; three MR treatments per week for twenty months
Procedure: In one example, a person was taking the drug Lipitor to manage their cholesterol levels. The subject began a series of three treatments per week for twenty months, and continuing on an ongoing basis. […] In order to provide MR treatment for cholesterol, the MR device settings may range from an amplitude from about 0.4998 μG to about 0.075 μG and a frequency from about 2.1 Hz to about 13.9996 Hz, or ranges within these ranges.

osteoarthritis patients = conditions: for results of continuing treatment / stiffness in hand, before treatment / pain in thumb, before treatment: person, taking the drugs; for results of continuing treatment: back pain (degenerative disk disease, sciatica), resonated approx. three times per week for more than one year; for stiffness in hand, before treatment / pain in thumb, before treatment: osteoarthritis, before MR; for stiffness in hand, before treatment: scale zero (feels great) to ten (feels terrible)
Description: In one example, a person suffered from back pain due to degenerative disk disease in their low back and sciatica. […] The subject was resonated approximately three times per week for more than one year.
In another example, a person experienced arthritis pain in a number of joints, including their hips, hands, and shoulders. The subject also suffered from sciatica in their hips and legs. The subject was taking Celebrex. The subject was resonated at least three times per week for one to two hours per session.
In a further example, a person experienced osteoarthritis pain and stiffness in their hands and finger joints. […] The subject was resonated twice for one-half hour per treatment. The subject was asked to rate their pain on a scale of zero (feels great) to ten (feels terrible) before and after treatment.
Alternatively, an amplitude of about 0.01 μG to about 0.46 μG, with a frequency of about 0.2799 Hz to about 12.8765 Hz may be used.

injured patients = assay: Case reports: injuries, drugs combined with MR treatment; assay type: in vivo, human; conditions: person, taking the drugs; for elimination of pain and stiffness: injured right knee (old Meniscus tear), 3 MR treatments of 1 hour over 5 days
Description: In another example, a person experienced pain and stiffness associated with a shoulder injury. The subject was taking Aspirin and Ibuprofin. The subject received two one-hour treatments three days apart. The result was a decrease in pain level of 50% and a decrease in stiffness of 50%.
In a further example, a person experienced pain and stiffness associated with an injured knee. The subject was taking Aspirin and Ibuprofin. Over the course of 5 days, the subject received 3 treatments, each lasting 1.5 hours. The result was a decrease in pain level of 50-100% and a decrease in stiffness of 50%.
In a further example, a person experienced pain and stiffness associated with an injured right knee that was the result of an old Meniscus tear injury. The subject was taking Aspirin and Ibuprofin. Over the course of 5 days, the subject received 3 treatments, each lasting 1 hour. The result was a 100% elimination of their pain an stiffness.
In another example, a person experienced pain and stiffness associated with an injured left knee. The subject was taking Aspirin and Ibuprofin. Over the course of three days, the subject received two treatments, each lasting one hour. The result was a decrease in pain level of 75% and a decrease in stiffness of 50%.
In providing MR treatment to a subject with pain and/or one or more injuries, an amplitude of about 0.01 μG to about 0.5 μG, with a frequency of about 0.2799 Hz to about 14.0 Hz may be used.

subject with back pain = assay: Case reports: low back pain, drugs combined with MR treatment; assay type: in vivo, human; conditions: person, taking the drugs; for decrease in pain level and stiffness level: four one-hour MR treatments over eleven days; for decrease in stiffness level: one MR treatment of one hour
Description: In one example, a person experienced pain and stiffness associated with their low back. The subject was taking Aspirin and Ibuprofen. Over the course of ten days, the subject received three treatments. The result was a decrease in pain level of 50-100%.
In another example, a person experienced pain and stiffness associated with their low back. The subject was taking Aspirin and Ibuprofen. Over the course of eleven days, the subject received four treatments, each lasting one hour. The result was a decrease in pain level and stiffness level of 75%.
In another example, a person experienced pain and stiffness associated with their low back. The subject was taking Aspirin and Ibuprofen. The subject received one treatment, lasting one hour. The result was a decrease in pain level of 60-70% and stiffness level of 90%.
In providing MR treatment to a subject with back pain, an amplitude of about 0.01 μG to about 0.457 μG, with a frequency of about 0.2799 Hz to about 12.8 Hz may be used.

[3] = test system: migraine and headache patients; assay: Case reports: migraine and headache drugs combined with MR treatment; assay type: in vivo, human
Procedure: The subject was resonated ten times for 1 to 1.5 hours per treatment over a one-month period.
In another example, a person experienced pain associated with migraines. […] The subject received two one-hour treatments three months apart.
In a further example, a person experienced pain associated with severe headaches. The subject took Aspirin to treat the pain. The subject received one treatment for one hour.

[4] = same subject, after being resonated twice for one-half hour per treatment, scale zero to ten
[5] = injured knee, 3 MR treatments of 1.5 hours over 5 days
[6] = injured left knee, two one-hour MR treatments over three days
[7] = shoulder injury, two one-hour MR treatments three days apart

NCCCC[C@H](N[C@@H](CCc1ccccc1)C(=O)O)C(=O)N1CCC[C@H]1C(=O)O [Lisinopril]
result of treatment on sensation in feet [1]: sensation returned for touch, texture, and temperature | pain level after treatment, first series (fibromyalgia patients): 0.5

N.N.O=C([O-])C1(C(=O)[O-])CCC1.[Pt+2] [carboplaton]
reported effects after taking the cancer drugs (cancer patients): increased lethargy and decreased energy and motivation

CC(C)c1c(C(=O)Nc2ccccc2)c(-c2ccccc2)c(-c2ccc(F)cc2)n1CC[C@@H](O)C[C@@H](O)CC(=O)O [Lipitor]
cholesterol levels [2]: at the best ratio in twenty years

CCc1ccc(CCOc2ccc(CC3SC(=O)NC3=O)cc2)nc1 (stereo not drawn) [Actos]
result of treatment on sensation in feet [1]: sensation returned for touch, texture, and temperature

CC(=O)Oc1ccccc1C(=O)O [Aspirin]
results of continuing treatment (osteoarthritis patients): significantly less pain, an improved range of motion, and improved sleep | stiffness in hand, before treatment (osteoarthritis patients): two | pain in thumb, before treatment (osteoarthritis patients; scale zero to ten): three | pain in thumb, after treatment (osteoarthritis patients; [4]): zero | stiffness in hand, after treatment (osteoarthritis patients; [4]): zero | decrease in stiffness (injured patients; [5]): 50% | decrease in pain level (injured patients; [6]): 75% | decrease in stiffness (injured patients; [6]): 50% | elimination of pain and stiffness (injured patients): 100% | decrease in pain level (injured patients; [7]): 50% | decrease in stiffness (injured patients; [7]): 50% | decrease in pain level and stiffness level (subject with back pain): 75% | decrease in stiffness level (subject with back pain): 90% | pain before treatment ([3]; person, severe headaches, taking Aspirin, before MR): 6.5 | pain after treatment ([3]; same subject, after one MR treatment for one hour): zero

CN(C)C(=N)NC(=N)N [Metaformin]
result of treatment on sensation in feet [1]: sensation returned for touch, texture, and temperature

CC(C)Cc1ccc(C(C)C(=O)O)cc1 (stereo not drawn) [Ibuprofin]
results of continuing treatment (osteoarthritis patients): significantly less pain, an improved range of motion, and improved sleep | stiffness in hand, before treatment (osteoarthritis patients): two | pain in thumb, before treatment (osteoarthritis patients; scale zero to ten): three | decrease in stiffness (injured patients; [5]): 50% | decrease in pain level (injured patients; [6]): 75% | decrease in stiffness (injured patients; [6]): 50% | elimination of pain and stiffness (injured patients): 100% | decrease in pain level (injured patients; [7]): 50% | decrease in stiffness (injured patients; [7]): 50% | decrease in pain level and stiffness level (subject with back pain): 75% | decrease in stiffness level (subject with back pain): 90% | results on migraines ([3]; person with migraines taking the drugs, resonated ten times, 1 to 1.5 hours, over one month): decreased frequency and duration of migraines | pain level before being resonated ([3]; person with migraines taking the drugs, scale of zero to ten): nine | reduction in pain level ([3]; person with migraines taking the drugs, two one-hour MR treatments three months apart): 50% | pain level after treatment ([3]; same subject, after ten MR treatments over one month, scale of zero to ten): two
